Laboratory results reported in patent US20250186436A1 (4E Therapeutics, Inc., priority 2021, published 2025).
Where “and” joins values, the source holds several entries; their conditions need not be identical. Equal entries are not always repeated. Where two headings read alike, the source gives them in different places.

Columns and labels:
Type in all cases: in vivo
paclitaxel CIPN mice = experiment: Conditioned Place Preference (CPP) test with chemotherapy induced peripheral neuropathy (CIPN) mice
Description: Mice were treated over a period of 8 days with 4 injections of paclitaxel, made in ethanol and kollipher vehicle, each at 4 mg/kg for a cumulative dose of 16 mg/kg. […] 4ET-03-053 was given with pairing with the white chamber in the CPP box with the idea that pain relief in the white chamber will counteract the natural aversion mice have to areas with bright light.

[1] = PK study in male Sprague-Dawley rats, IV 0.5 mg/kg and PO 1 mg/kg in 10% DMA/PG (Example 5); details: for MRT inf: MRTinf
Description: Example 5: PK study of 4ET-03-053 in male Sprague-Dawley rats with IV (0.5 mg kg; 10% DMI 15% EtOH 35% PG 40% NS) and PO (1 mg kg; 10% DMA PG) dosing
In male Sprague-Dawley rats, following IV administration with 0.5 mg/kg 4ET-03-053, plasma concentrations declined in a multiphasic manner with an initial concentration (Co) of 1.24 ug/mL and a last measurable concentration (Clast) of 33.2 ng/mL at 24 h post dose.
Table 15 provides plasma and brain concentrations at 2 hr after a single P0 dose of 1 mg/kg.

[2] = test system: IL-6 evoked grimace in ICR mice; experiment: IL-6 evoked grimace test; details: PO 1 hr prior to IL-6 (4ET-03-053: 10 mg/kg)
Description: Male and female Institute for Cancer Research (ICR) mice were used in these experiments. Mice were bred in house at University of Texas at Dallas and used at between 12 and 24 weeks of age. Mice were habituated to plexiglass boxes of approximately 4×6 inches in size with openable tops. Habituation took place over 2 days with animals exposed to the boxes for at least 30 min. A blinded observer scored baseline grimacing using the method previously described by Mogil and colleagues (Langford D J, et al. “Coding of facial expressions of pain in the laboratory mouse” Nat Methods 7:447-449 (2010)). On test day, mice were given test compounds 1 hr prior to injection of interleukin 6 (human recombinant IL-6, R&D Systems) which was given at a dose of 0.1 ng in saline via an intraplantar injection as described previously (Moy J K, et al. “The MNK-eIF4E Signaling Axis Contributes to Injury-Induced Nociceptive Plasticity and the Development of Chronic Pain” J Neurosci. 37:7481-7499 (2017)). Test compounds were given orally (PO) via a flexible oral gavage canula built for mice. 4ET-03-053 is efficacious in the IL-6 evoked grimace test in mice (PO; 10 mg/kg).
Effect sizes were calculated per mouse by subtracting the baseline grimace score from the sum of the grimace scores for 1 and 3 hr time points.

[3] = PK study in male Sprague Dawley rats, IV 1 mg/kg and PO 10 mg/kg (Example 4)
[4] = male Sprague-Dawley rats, IV 0.5 mg/kg, 10% DMI:15% EtOH:35% PG:40% NS, individual animals, 0.5 mg/kg
[5] = male, Sprague-Dawley, rat, in vivo, iv, 0.5 mg/kg
[6] = male, Sprague-Dawley, rat, in vivo, po, 1 mg/kg
[7] = SD rats, single PO 10 mg/kg, 10% DMA/PG, individual animals, 10 mg/kg
[8] = SD rats, single PO 10 mg/kg, 10% DMA/PG, mean (n = 3)
[9] = male SD rats, 1 mg/kg IV, individual animals, 1 mg/kg

## Cc1cc(Nc2cc(N)ncn2)c(=O)n2c1C(=O)NC21CCC2(CC2)CC1 [4ET-03-053, 6″-((6-Aminopyrimidin-4-yl)amino)-8″-methyl-2″H-dispiro[cyclopropane-1,1′-cyclohexane-4′,3″-imidazo[1,5-a]pyridine]-1″,5″-dione]
Paclitaxel CIPN mice; CIPN mice (paclitaxel), 10 mg/kg
  CPP: time in white (drug-paired) chamber: spent more time in the white chamber vs. dark chambers
Paclitaxel CIPN mice; mice that did not have CIPN
  CPP: effect in mice without CIPN (reward): no effect
[1]; [4]
  AUClast: 4654 ng·h/mL and 3767 ng·h/mL
  Clast: 36.7 ng/mL and 29.7 ng/mL
[1]; [5]
  C0: 1240 ng/mL
  MRT inf: 7.69 h
[1]; male, Sprague-Dawley, rat, in vivo, iv, 0.5 mg/kg, AUCinf
  AUC(0-inf): 4080 ng·h/mL
[1]; male, Sprague-Dawley, rat, in vivo, iv, 0.5 mg/kg, CLp
  clearance: 2.04 mL/min/kg
[1]; male, Sprague-Dawley, rat, in vivo, iv, 0.5 mg/kg, Vss
  Vd: 0.942 L/kg
[1]; male, Sprague-Dawley, rat, in vivo, iv, 0.5 mg/kg, male Sprague-Dawley rats, 0.5 mg/kg IV, at 24 h, read-out: last measurable concentration (Clast)
  concentration at 24 h: 33.2 ng/mL
[1]; male, Sprague-Dawley, rat, in vivo, iv, 0.5 mg/kg, male Sprague-Dawley rats, IV 0.5 mg/kg, 10% DMI:15% EtOH:35% PG:40% NS, individual animals, read-out: AUClast
  AUC(0-t): 4030 ng·h/mL
[1]; male, Sprague-Dawley, rat, in vivo, iv, 0.5 mg/kg, male Sprague-Dawley rats, IV 0.5 mg/kg, 10% DMI:15% EtOH:35% PG:40% NS, individual animals, read-out: Clast
  concentration at 24 h: 33.1 ng/mL
[1]; male, Sprague-Dawley, rat, in vivo, iv, 0.5 mg/kg, male Sprague-Dawley rats, IV 0.5 mg/kg, 10% DMI:15% EtOH:35% PG:40% NS, mean (n = 3), read-out: AUClast
  AUC(0-t): 4150 ng·h/mL
[1]; male, Sprague-Dawley, rat, in vivo, iv, 0.5 mg/kg, male Sprague-Dawley rats, IV 0.5 mg/kg, 10% DMI:15% EtOH:35% PG:40% NS, mean (n = 3), read-out: Clast
  concentration at 24 h: 33.2 ng/mL
[1]; male, Sprague-Dawley, rat, in vivo, iv, 0.5 mg/kg, steady-state volume of distribution (Vss)
  Vd: 0.87 L/kg
[1]; male, Sprague-Dawley, rat, in vivo, iv, 0.5 mg/kg, systemic clearance (CLp)
  clearance: 1.87 mL/min/kg
[1]; male, Sprague-Dawley, rat, in vivo, iv, 0.5 mg/kg, t1/2
  half-life: 7.26 h
[1]; male, Sprague-Dawley, rat, in vivo, iv, 0.5 mg/kg, terminal half-life (t1/2)
  half-life: 7.33 h
[1]; male, Sprague-Dawley, rat, in vivo, iv, 0.5 mg/kg, total systemic exposure (AUCinf)
  AUC(0-inf): 4500 ng·h/mL
[1]; [6]
  Tmax: 0.5 h
  bioavailability: 76.7%
  time to peak plasma concentration: ≤ 30 min
  MRT inf: 10.6 h
[1]; male, Sprague-Dawley, rat, in vivo, po, 1 mg/kg, AUCinf
  AUC(0-inf): 7020 ng·h/mL
[1]; male, Sprague-Dawley, rat, in vivo, po, 1 mg/kg, AUClast
  AUC(0-t): 6110 ng·h/mL
[1]; male, Sprague-Dawley, rat, in vivo, po, 1 mg/kg, Clast
  concentration at 24 hr: 74.6 ng/mL
[1]; male, Sprague-Dawley, rat, in vivo, po, 1 mg/kg, Cmax
  Cmax: 683 ng/mL
[1]; male, Sprague-Dawley, rat, in vivo, po, 1 mg/kg, last measurable concentration
  concentration at 24 hr: 74.6 ng/mL
[1]; male, Sprague-Dawley, rat, in vivo, po, 1 mg/kg, peak plasma concentration (Cmax)
  Cmax: 683 ng/mL
[1]; male, Sprague-Dawley, rat, in vivo, po, 1 mg/kg, t1/2
  half-life: 9.23 h
[1]; male, Sprague-Dawley, rat, in vivo, po, 1 mg/kg, terminal half-life (t1/2)
  half-life: 9.23 h
[1]; male, Sprague-Dawley, rat, in vivo, po, 1 mg/kg, total systemic exposure (AUCinf)
  AUC(0-inf): 6900 ng·h/mL
[2]
  efficacy in the IL-6 evoked grimace test: efficacious
[3]; SD rats, single PO 10 mg/kg, 10% DMA/PG, individual animals
  Tlast: 24.0 h
[3]; [7]
  AUCinf/D: 23000 kg·h/kL and 24504 kg·h/kL and 18751 kg·h/kL
  Clast: 2710 ng/mL and 2950 ng/mL
  Cmax/D: 1440 kg/kL and 1960 kg/kL and 1840 kg/kL
  F: 44.7% and 47.6% and 36.4%
[3]; [8]
  AUCinf/D: 22085 kg·h/kL
  Cmax/D: 1747 kg/kL
  F: 42.9%
  Tlast: 24.0 h
[3]; male SD rats, 1 mg/kg IV, individual animals
  Tlast: 24.0 h
[3]; [9]
  AUCinf: 55049 ng·h/mL and 46264 ng·h/mL
  AUCinf/D: 53103 kg·h/kL and 55049 kg·h/kL and 46264 kg·h/kL
